Measurements taken from publication PMC11768667 (2025).
Each block holds one molecule with its values, some of them ahead of it.

What was measured:
[1] = test system: FKB-S-5'FAM (DNA, aptamer) CTTACCACCAAGTGAGGGTGTACGGTGGCTTACGCTTGGTCGTAAG; test: microscale thermophoresis; conditions: 20 mM NaCl, 0.5 mM MgCl2; 10 mM Tris-HCl pH 7.4, 5% DMSO, 0.05% Tween-20
[2] = test system: FKB-3 (DNA, aptamer) CGAGCATAGGCAGAACTTACCACACAGCGTACCTCGTAGCCATGCGCCGTTGGGTCGTAAGAGCGAGTCATTC; test: gel elution assay; conditions: 20 mM NaCl, 0.5 mM MgCl2; for binding: 10 mM Tris-HCl pH 7.4, displacement from cDNA-bio
[3] = test system: FKB-2 (DNA, aptamer) CGAGCATAGGCAGAACTTACCACGAGGACGGGTCAGTGCGTTAGGTGCCCACAGTCGTAAGAGCGAGTCATTC; test: gel elution assay; conditions: 20 mM NaCl, 0.5 mM MgCl2; for binding: 10 mM Tris-HCl pH 7.4, displacement from cDNA-bio
[4] = test system: FKB-1 (DNA, aptamer) CGAGCATAGGCAGAACTTACCACCAAGTGAGGGTGTACGGTGGCTTACGCTTGGTCGTAAGAGCGAGTCATTC; test: gel elution assay; conditions: 20 mM NaCl, 0.5 mM MgCl2; for binding: 10 mM Tris-HCl pH 7.4, displacement from cDNA-bio, tested at 100 µM
[5] = test system: FKB-S (DNA, aptamer) CTTACCACCAAGTGAGGGTGTACGGTGGCTTACGCTTGGTCGTAAG; test: AuNP aggregation colorimetric assay; conditions: NaCl (20 µL of 400 mM added after compound), room temperature, indirect readout
[6] = test system: FKB-1-5'FAM (DNA, aptamer) CGAGCATAGGCAGAACTTACCACCAAGTGAGGGTGTACGGTGGCTTACGCTTGGTCGTAAGAGCGAGTCATTC; test: microscale thermophoresis; conditions: 20 mM NaCl, 0.5 mM MgCl2; 10 mM Tris-HCl pH 7.4, 5% DMSO, 0.05% Tween-20
[7] = 10 mM Tris-HCl pH 7.4, room temperature, displaced from cDNA-bio, apparent

- binding [1]: weak
- binding [2]: weak
- binding [3]: weak
- binding [4]: no
SMILES: COc1cc(O)c(C(=O)/C=C/c2ccc(O)cc2)c(OC)c1

- binding ([5]; FKB 0-5 μM): yes
- KD [1]: 280 nM
- KD [2, 7]: 40500 nM
- KD [3, 7]: 9970 nM
- KD [6]: 1450 nM
- KD [4, 7]: 2870 nM
SMILES: COc1cc(O)c(C(=O)/C=C/c2ccccc2)c(OC)c1

- binding [1]: weak
- binding [2]: weak
- binding [3]: weak
- binding [4]: no
SMILES: COc1ccc(/C=C/C(=O)c2c(O)cc(OC)cc2OC)cc1

- binding [4]: no
SMILES: O=C(/C=C/c1ccc(O)cc1)c1ccc(O)cc1O

- binding [4]: no
SMILES: O=C1c2cccc(O)c2C(=O)c2c(O)cc(CO)cc21

- binding [5]: no
- binding [4]: no
SMILES: O=c1c(O)c(-c2cc(O)c(O)c(O)c2)oc2cc(O)cc(O)c12

- binding [5]: no
- binding [4]: no
SMILES: O=c1c(O)c(-c2ccc(O)c(O)c2)oc2cc(O)cc(O)c12
